Like-named read-outs stand apart in the source and are kept apart here. Positions of bridges follow the written chain, without caps; N, C: chain ends. Non-standard residues stand in square brackets, D forms with d. Residues, ends and D or L forms follow the SMILES beside them. Hyp = O=C(O)[C@@H]1C[C@@H](O)CN1; NMeNle = CCCC[C@H](NC)C(=O)O; NMeA = CN[C@@H](C)C(=O)O; Dab = NCC[C@H](N)C(=O)O; Sar = CNCC(=O)O
Assays:
Human PD-L1/PD-1 = target: T1, Human PD-L1/PD-1 (Homo sapiens, UniProt Q9NZQ7); assay: HTRF PD-1-Ig/PD-L1-His binding assay (human PD-L1); conditions: cluster symbol; read-out: HTRF IC50 cluster
T1 construct: made in house; host or cells: HEK293T
In short: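 The time-resolved fluorescence signal comes from Eu-cryptate anti-Ig (1 nM) and APC anti-His (20 nM) antibodies bound to a PD-1-Ig/PD-L1-His complex. Both partners lack transmembrane regions.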

[1] = target: T2, LK35.2-hPD-L1 cells / PE-labeled PD-1-Ig (Homo sapiens, UniProt Q9NZQ7); assay: LK35.2-hPD-L1 cell binding high-content screening assay; assay type: cell-based; conditions: cell binding assay, cell line not given
T2 construct: expressed in transfected cells; host or cells: LK35.2 mouse B cell line
In short: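 Mouse LK35.2 B cells stably overexpressing human PD-L1 were cultured overnight in RPMI with 10% FCS, then given compound and PE-labeled human PD-1-Ig (1 nM final) for 1 h at 37 °C. After three dPBS washes, bound fluorescence was quantified by high-content imaging.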

[2] = cluster symbol, read-out: CBA IC50 cluster

T2 sequence (Q9NZQ7 19-290): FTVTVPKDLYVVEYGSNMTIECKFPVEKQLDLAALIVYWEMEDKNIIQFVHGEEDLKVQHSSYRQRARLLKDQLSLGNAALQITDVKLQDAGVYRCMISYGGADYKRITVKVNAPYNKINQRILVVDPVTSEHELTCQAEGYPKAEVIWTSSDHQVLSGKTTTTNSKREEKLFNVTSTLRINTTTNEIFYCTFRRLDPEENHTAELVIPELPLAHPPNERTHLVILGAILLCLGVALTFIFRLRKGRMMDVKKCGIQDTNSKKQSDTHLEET
T1 sequence (Q9NZQ7 with tags, fused parts or gaps): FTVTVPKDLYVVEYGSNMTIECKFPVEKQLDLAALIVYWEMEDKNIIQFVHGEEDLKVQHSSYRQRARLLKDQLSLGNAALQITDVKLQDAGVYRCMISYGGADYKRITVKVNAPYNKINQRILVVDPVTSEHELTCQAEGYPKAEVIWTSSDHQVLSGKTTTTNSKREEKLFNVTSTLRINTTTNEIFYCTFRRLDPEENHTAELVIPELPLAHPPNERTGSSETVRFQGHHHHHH

| SMILES | IC50 (Human PD-L1/PD-1) [nM] | IC50 [1, 2] [nM] | IC50 ([1]; value given instead of cluster, read-out: CBA IC50 value) [nM] |
| --- | --- | --- | --- |
| CCCC[C@H]1C(=O)N(C)[C@@H](CCCC)C(=O)N[C@@H](CC(C)C)C(=O)N[C@H](C(=O)NCC(N)=O)CSCC(=O)N[C@@H](Cc2ccc(O)cc2)C(=O)N(C)[C@@H](C)C(=O)N[C@@H](CC(N)=O)C(=O)N(C)CC(=O)N[C@@H](Cc2c[nH]cn2)C(=O)N[C@@H](CCC(N)=O)C(=O)N2C[C@H](O)C[C@H]2C(=O)N[C@@H](Cc2c[nH]c3ccccc23)C(=O)N[C@@H](CO)C(=O)N[C@@H](Cc2c[nH]c3ccccc23)C(=O)N1C [Example 5084] ({CH2CO}-Y[NMeA]N[Sar]HQ[Hyp]WSW[NMeNle][NMeNle]LCG-NH2; thioether N-14) | 6.76 to 30.3 | 4.78 to 72.9 |  |
| CCCC[C@H]1C(=O)N(C)[C@@H](CCCC)C(=O)N[C@@H](CCC(=O)O)C(=O)N[C@H](C(=O)NCC(N)=O)CSCC(=O)N[C@@H](Cc2ccc(O)cc2)C(=O)N(C)[C@@H](C)C(=O)N[C@@H](CCN)C(=O)N2CCC[C@H]2C(=O)N[C@@H](CO)C(=O)N[C@@H](CCC(=O)O)C(=O)N2C[C@H](O)C[C@H]2C(=O)N[C@@H](Cc2c[nH]c3ccccc23)C(=O)N[C@@H](CCCCN)C(=O)N[C@@H](Cc2c[nH]c3ccccc23)C(=O)N1C [Example 5085] ({CH2CO}-Y[NMeA][Dab]PSE[Hyp]WKW[NMeNle][NMeNle]ECG-NH2; thioether N-14) | 0.385 to 6.74 | 0.158 to 4.71 |  |
| CCCC[C@H]1C(=O)N(C)[C@@H](CCCC)C(=O)N[C@@H](CCCNC(=N)N)C(=O)N[C@H](C(=O)NCC(N)=O)CSCC(=O)N[C@@H](Cc2ccc(O)cc2)C(=O)N(C)[C@@H](C)C(=O)N[C@@H](CCN)C(=O)N2CCC[C@H]2C(=O)N[C@@H](Cc2c[nH]cn2)C(=O)N[C@@H](CCC(=O)O)C(=O)N2C[C@H](O)C[C@H]2C(=O)N[C@@H](Cc2c[nH]c3ccccc23)C(=O)N[C@@H](CCN)C(=O)N[C@@H](Cc2c[nH]c3ccccc23)C(=O)N1C [Example 5086] ({CH2CO}-Y[NMeA][Dab]PHE[Hyp]W[Dab]W[NMeNle][NMeNle]RCG-NH2; thioether N-14) | 0.385 to 6.74 | 4.78 to 72.9 |  |
| CCCC[C@H]1C(=O)N(C)[C@@H](CCCC)C(=O)N[C@@H](CCC(=O)O)C(=O)N[C@H](C(=O)NCC(N)=O)CSCC(=O)N[C@@H](Cc2ccc(O)cc2)C(=O)N(C)[C@@H](C)C(=O)N[C@@H](CC(=O)O)C(=O)N2CCC[C@H]2C(=O)N[C@@H](Cc2c[nH]cn2)C(=O)N[C@@H](CCC(N)=O)C(=O)N2C[C@H](O)C[C@H]2C(=O)N[C@@H](Cc2c[nH]c3ccccc23)C(=O)N[C@@H](CO)C(=O)N[C@@H](Cc2c[nH]c3ccccc23)C(=O)N1C [Example 5088] ({CH2CO}-Y[NMeA]DPHQ[Hyp]WSW[NMeNle][NMeNle]ECG-NH2; thioether N-14) | 0.385 to 6.74 | 4.78 to 72.9 |  |
| CCCC[C@H]1C(=O)N(C)[C@@H](CCCC)C(=O)N[C@@H](CC(C)C)C(=O)N[C@H](C(=O)NCC(N)=O)CSCC(=O)N[C@@H](Cc2ccc(O)cc2)C(=O)N(C)[C@@H](C)C(=O)N[C@@H](CC(N)=O)C(=O)N2CCC[C@H]2C(=O)N[C@@H](Cc2c[nH]cn2)C(=O)N[C@@H](CCCCN)C(=O)N2C[C@H](O)C[C@H]2C(=O)N[C@@H](Cc2c[nH]c3ccccc23)C(=O)N[C@@H](CCCCN)C(=O)N[C@@H](Cc2c[nH]c3ccccc23)C(=O)N1C [Example 5089] ({CH2CO}-Y[NMeA]NPHK[Hyp]WKW[NMeNle][NMeNle]LCG-NH2; thioether N-14) | 0.385 to 6.74 | 0.158 to 4.71 |  |
| CCCC[C@H]1C(=O)N(C)[C@@H](CCCC)C(=O)N[C@@H](CC(C)C)C(=O)N[C@H](C(=O)NCC(N)=O)CSCC(=O)N[C@@H](Cc2ccc(O)cc2)C(=O)N(C)[C@@H](C)C(=O)N[C@@H](CCN)C(=O)N2CCC[C@H]2C(=O)N[C@@H](Cc2c[nH]cn2)C(=O)N[C@@H](CCC(=O)O)C(=O)N2C[C@H](O)C[C@H]2C(=O)N[C@@H](Cc2c[nH]c3ccccc23)C(=O)N[C@@H](CCN)C(=O)N[C@@H](Cc2c[nH]c3ccccc23)C(=O)N1C [Example 5090] ({CH2CO}-Y[NMeA][Dab]PHE[Hyp]W[Dab]W[NMeNle][NMeNle]LCG-NH2; thioether N-14) | 0.385 to 6.74 | 4.78 to 72.9 |  |
| CCCC[C@H]1C(=O)N(C)[C@@H](CCCC)C(=O)N[C@@H](CCN)C(=O)N[C@H](C(=O)NCC(N)=O)CSCC(=O)N[C@@H](Cc2ccc(O)cc2)C(=O)N(C)[C@@H](C)C(=O)N[C@@H](CCN)C(=O)N2CCC[C@H]2C(=O)N[C@@H](Cc2c[nH]cn2)C(=O)N[C@@H](CCC(=O)O)C(=O)N2C[C@H](O)C[C@H]2C(=O)N[C@@H](Cc2c[nH]c3ccccc23)C(=O)N[C@@H](C(C)C)C(=O)N[C@@H](Cc2c[nH]c3ccccc23)C(=O)N1C [Example 5091] ({CH2CO}-Y[NMeA][Dab]PHE[Hyp]WVW[NMeNle][NMeNle][Dab]CG-NH2; thioether N-14) | 6.76 to 30.3 | 4.78 to 72.9 |  |
| CCCC[C@H]1C(=O)N(C)[C@@H](CCCC)C(=O)N[C@@H](CCCNC(=N)N)C(=O)N[C@H](C(=O)NCC(N)=O)CSCC(=O)N[C@@H](Cc2ccc(O)cc2)C(=O)N(C)[C@@H](C)C(=O)N[C@@H](CCN)C(=O)N2CCC[C@H]2C(=O)N[C@@H](Cc2c[nH]cn2)C(=O)N[C@@H](CC(C)C)C(=O)N2C[C@H](O)C[C@H]2C(=O)N[C@@H](Cc2c[nH]c3ccccc23)C(=O)N[C@@H](CO)C(=O)N[C@@H](Cc2c[nH]c3ccccc23)C(=O)N1C [Example 5094] ({CH2CO}-Y[NMeA][Dab]PHL[Hyp]WSW[NMeNle][NMeNle]RCG-NH2; thioether N-14) | 0.385 to 6.74 | 4.78 to 72.9 |  |
| CCCC[C@H]1C(=O)N(C)[C@@H](CCCC)C(=O)N[C@@H](CC(=O)O)C(=O)N[C@H](C(=O)NCC(N)=O)CSCC(=O)N[C@@H](Cc2ccc(O)cc2)C(=O)N(C)[C@@H](C)C(=O)N[C@@H](CC(=O)O)C(=O)N2CCC[C@H]2C(=O)N[C@@H](Cc2c[nH]cn2)C(=O)N[C@@H](CCCCN)C(=O)N2C[C@H](O)C[C@H]2C(=O)N[C@@H](Cc2c[nH]c3ccccc23)C(=O)N[C@@H](CCCCN)C(=O)N[C@@H](Cc2c[nH]c3ccccc23)C(=O)N1C [Example 5096] ({CH2CO}-Y[NMeA]DPHK[Hyp]WKW[NMeNle][NMeNle]DCG-NH2; thioether N-14) | 0.385 to 6.74 | 0.158 to 4.71 |  |
| CCCC[C@H]1C(=O)N(C)[C@@H](CCCC)C(=O)N[C@@H](CCC(=O)O)C(=O)N[C@H](C(=O)NCC(N)=O)CSCC(=O)N[C@@H](Cc2ccc(O)cc2)C(=O)N(C)[C@@H](C)C(=O)N[C@@H](CC(=O)O)C(=O)N2CCC[C@H]2C(=O)N[C@@H](Cc2c[nH]cn2)C(=O)N[C@@H](CCCCN)C(=O)N2C[C@H](O)C[C@H]2C(=O)N[C@@H](Cc2c[nH]c3ccccc23)C(=O)N[C@@H](CO)C(=O)N[C@@H](Cc2c[nH]c3ccccc23)C(=O)N1C [Example 5098] ({CH2CO}-Y[NMeA]DPHK[Hyp]WSW[NMeNle][NMeNle]ECG-NH2; thioether N-14) | 0.385 to 6.74 | 4.78 to 72.9 |  |

Next, values leading:

| IC50 (Human PD-L1/PD-1) [nM] | IC50 [1, 2] [nM] | IC50 ([1]; value given instead of cluster, read-out: CBA IC50 value) [nM] | SMILES |
| --- | --- | --- | --- |
| 0.385 to 6.74 | 4.78 to 72.9 |  | CCCC[C@H]1C(=O)N(C)[C@@H](CCCC)C(=O)N[C@@H](C)C(=O)N[C@H](C(=O)NCC(N)=O)CSCC(=O)N[C@@H](Cc2ccc(O)cc2)C(=O)N(C)[C@@H](C)C(=O)N[C@@H](CCN)C(=O)N2CCC[C@H]2C(=O)N[C@@H](Cc2c[nH]cn2)C(=O)N[C@@H](CCC(=O)O)C(=O)N2C[C@H](O)C[C@H]2C(=O)N[C@@H](Cc2c[nH]c3ccccc23)C(=O)N[C@@H](CO)C(=O)N[C@@H](Cc2c[nH]c3ccccc23)C(=O)N1C [Example 5087] ({CH2CO}-Y[NMeA][Dab]PHE[Hyp]WSW[NMeNle][NMeNle]ACG-NH2; thioether N-14) |
| 6.76 to 30.3 | 4.78 to 72.9 |  | CCCC[C@H]1C(=O)N(C)[C@@H](CCCC)C(=O)N[C@@H](CCCNC(=N)N)C(=O)N[C@H](C(=O)NCC(N)=O)CSCC(=O)N[C@@H](Cc2ccc(O)cc2)C(=O)N(C)[C@@H](C)C(=O)N[C@@H](CCN)C(=O)N2CCC[C@H]2C(=O)N[C@@H](Cc2c[nH]cn2)C(=O)N[C@@H](CCC(N)=O)C(=O)N2C[C@H](O)C[C@H]2C(=O)N[C@@H](Cc2c[nH]c3ccccc23)C(=O)N[C@@H](CO)C(=O)N[C@@H](Cc2c[nH]c3ccccc23)C(=O)N1C [Example 5092] ({CH2CO}-Y[NMeA][Dab]PHQ[Hyp]WSW[NMeNle][NMeNle]RCG-NH2; thioether N-14) |
| 0.385 to 6.74 | 0.158 to 4.71 |  | CCCC[C@H]1C(=O)N(C)[C@@H](CCCC)C(=O)N[C@@H](CC(C)C)C(=O)N[C@H](C(=O)NCC(N)=O)CSCC(=O)N[C@@H](Cc2ccc(O)cc2)C(=O)N(C)[C@@H](C)C(=O)N[C@@H](CC(=O)O)C(=O)N2CCC[C@H]2C(=O)N[C@@H](Cc2c[nH]cn2)C(=O)N[C@@H](CCCCN)C(=O)N2C[C@H](O)C[C@H]2C(=O)N[C@@H](Cc2c[nH]c3ccccc23)C(=O)N[C@@H](CCCCN)C(=O)N[C@@H](Cc2c[nH]c3ccccc23)C(=O)N1C [Example 5095] ({CH2CO}-Y[NMeA]DPHK[Hyp]WKW[NMeNle][NMeNle]LCG-NH2; thioether N-14) |
| 6.76 to 30.3 |  | 74.3 | CCCC[C@H]1C(=O)N(C)[C@@H](CCCC)C(=O)N[C@@H](CO)C(=O)N[C@H](C(=O)NCC(N)=O)CSCC(=O)N[C@@H](Cc2ccc(O)cc2)C(=O)N(C)[C@@H](C)C(=O)N[C@@H](CCN)C(=O)N2CCC[C@H]2C(=O)N[C@@H](Cc2c[nH]cn2)C(=O)N[C@@H](CCC(=O)O)C(=O)N2C[C@H](O)C[C@H]2C(=O)N[C@@H](Cc2c[nH]c3ccccc23)C(=O)N[C@@H](C(C)C)C(=O)N[C@@H](Cc2c[nH]c3ccccc23)C(=O)N1C [Example 5097] ({CH2CO}-Y[NMeA][Dab]PHE[Hyp]WVW[NMeNle][NMeNle]SCG-NH2; thioether N-14) |

Reference: patent publication US9850283B2, “Macrocyclic inhibitors of the PD-1/PD-L1 and CD80(B7-1)/PD-L1 protein/protein interactions” (BRISTOL-MYERS SQUIBB COMPANY, priority 2013, dated 2017)
